Assay results: publication PMC8151276, “An Integrated Approach toward NanoBRET Tracers for Analysis of GPCR Ligand Engagement” (Molecules, 2021)

Target: T1, EDNRB (Homo sapiens, UniProt P24530)
T1 construct: purchased Promega (in-house HiBiT-GPCR construct library, NanoBRET)
T1 sequence (P24530 27-442): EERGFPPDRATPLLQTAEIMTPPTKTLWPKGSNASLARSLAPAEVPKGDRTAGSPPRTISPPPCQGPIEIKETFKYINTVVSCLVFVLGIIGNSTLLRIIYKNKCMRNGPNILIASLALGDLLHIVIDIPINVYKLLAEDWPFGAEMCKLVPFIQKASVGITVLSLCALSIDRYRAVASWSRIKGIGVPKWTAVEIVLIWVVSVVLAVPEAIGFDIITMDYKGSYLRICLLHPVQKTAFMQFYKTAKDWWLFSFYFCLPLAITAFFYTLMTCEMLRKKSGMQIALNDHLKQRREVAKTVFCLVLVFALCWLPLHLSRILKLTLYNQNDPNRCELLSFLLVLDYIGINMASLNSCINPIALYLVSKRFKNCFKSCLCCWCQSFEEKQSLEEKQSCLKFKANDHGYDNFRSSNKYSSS
Assay: NanoBRET screen HiBiT-EDNRB in HEK293
Assay type: binding
Protocol: Each tracer candidate was screened across the entire library of HiBiT-GPCR constructs using NanoBRET as the detection modality. As depicted in Figure 4A, the specificity of interactions was evaluated through decrease in BRET due to competitive displacement of a bound tracer by excess parental compound. Each tracer was analyzed for binding to each HiBiT-GPCR fusion in the absence and in the presence of competing parental compound. Briefly, HEK293 cells were transfected with HiBiT-GPCR constructs diluted into promoterless DNA to reduce expression and maximize translocation to the cell surface. Each tracer candidate was then screened at concentrations of 1 μM and 0.1 μM across cells expressing these fusions. Cells were treated for 1.5 h with tracer either alone or in the presence of 20 μM competing parental compound (i.e., control). BRET was measured upon addition of purified LgBiT and subsequent complementation with HiBiT genetically fused to a GPCR. The specificity of interactions was assessed through a decrease in BRET signal due to competitive displacement of the bound tracer. To further gauge the robustness of these interactions, the fold response over the control (i.e., BRETtracer/BRETcontrol) was calculated. We chose a 1.5-fold response, which translates to ≥7-fold signal over noise as the minimal threshold required to score an interaction as positive.
HiBiT-GPCR DNA constructs were diluted in 10 mM Tris pH 8 to a final concentration of 0.01 μg/μL, arrayed in 96-well plates and stored at −20 °C. For transfection, HEK293 cells were suspended in Opti-MEM (without phenol red) supplemented with 2% fetal bovine serum (Seradigm) and 100 units/mL penicillin–streptomycin (Gibco) at a final concentration of 220,000 cells/mL and dispensed into white 96-well plates at 90 μL/well. Subsequent transfections and screens were carried using an Agilent Bravo Automated Liquid Handling Platform. First, the 96-well HiBiT DNA arrays were diluted 25-fold in Opti-MEM (without serum or phenol red) to a final concentration of 0.0004 μg/μL and 20 μL of the diluted DNAs were transferred into new 96-well plates. Next, promoterless carrier DNA (1 μg/μL) was diluted 25-fold (0.04 μg/μL) and then dispensed into the diluted arrays at 20 μL/well. Following brief mixing, Viafect transfection reagent (Promega) diluted 16-fold into Opti-MEM was dispensed into the plates at 40 μL/well. After mixing by pipetting, plates were incubated for 10 min on the pipetting station deck. The DNA-transfection reagent complexes were then added to plates containing cells. To facilitate the screen, 10 μL of DNA-transfection reagent complexes were added in duplicates to the top 4 and bottom 4 rows, resulting in two identical 48-well arrays per plate. Plates with transfected cells were incubated for 18–20 h at 37 °C/5% CO2. A screen of each tracer across the entire library using two different concentrations requires duplicate plates of transfected cells. Depending on the number of tracers being screened, transfections can be scaled up using the same ratios. The next day, for each tracer, four 20× screening solutions in tracer dilution buffer (Promega) were prepared: two duplicates at final concentration of 20 μM and two duplicates at a final concentration of 2 μM. […] The four resulting solutions were diluted 4-fold in Opti-MEM without serum or phenol red to generate 5× solutions (5 µM and 0.5 µM tracer +/− 100 μM competing compound). To screen the library, a BioTek MultiFlo FX liquid dispenser was used to dispense 22.5 µL of tracer solution to the top 4 rows and 22.5 µL tracer + competing compound solution to the 4 bottom rows. Plates were briefly mixed on an orbital shaker and incubated for 1.5 h at room temperature. […] Plates were briefly mixed on an orbital shaker and incubated for 15 min to allow complementation.

Row | SMILES | NanoBRET Fold Response (EDNRB, tracer 0.1μM) | NanoBRET Fold Response (EDNRB, tracer 1μM) | other results
1 | CN1CCN(C2=Nc3cc(Cl)ccc3Nc3ccc(CNC(=O)CCOCCOCCOCCOCCNC(=O)CCc4ccc5n4[B-](F)(F)[N+]4=C(c6ccc[nH]6)C=CC4=C5)cc32)CC1 [Clozapine-b-2-NB590] | – | – | NanoBRET Fold Response (EDNRB, 0.1μM tracer): 0.96; NanoBRET Fold Response (EDNRB, 1μM tracer): 0.99
2 | CN(C)CCC=C1c2ccccc2CCc2ccc(C(=O)NCCNC(=O)CCOCCOCCOCCOCCNC(=O)CCc3ccc4n3[B-](F)(F)[N+]3=C(c5ccc[nH]5)C=CC3=C4)cc21 [Amitriptyline-b-2-NB590] | – | – | NanoBRET Fold Response (tracer at 1μM, listed as amitriptyline-b-2-NB590): 0.83
3 | CCOC(=O)c1cc(C#N)c(N2CCC(C(=O)NS(=O)(=O)Cc3ccccc3/C=C/C(=O)NCCNC(=O)CCc3ccc4n3[B-](F)(F)[N+]3=C(c5ccc[nH]5)C=CC3=C4)CC2)nc1C [AZD1283-1-NB590] | – | – | NanoBRET Fold Response (EDNRB, 0.1μM): 1.03; NanoBRET Fold Response (EDNRB, 1μM): 0.98
4 | CC(C)N(CC[C@H](c1ccccc1)c1cc(CCNC(=O)CCOCCOCCOCCOCCNC(=O)CCc2ccc3n2[B-](F)(F)[N+]2=C(c4ccc[nH]4)C=CC2=C3)ccc1O)C(C)C [Tolterodine-2-NB590] | 0.97 | 1.03 | –
5 | CC(C)N(CC[C@H](c1ccccc1)c1cc(CCNC(=O)c2ccc(CNC(=O)CCc3ccc4n3[B-](F)(F)[N+]3=C(c5ccc[nH]5)C=CC3=C4)cc2)ccc1O)C(C)C [Tolterodine-BZ-NB590] | 0.96 | 0.98 | –
6 | O=C(CCOCCOCCOCCOCCNC(=O)CCc1ccc2n1[B-](F)(F)[N+]1=C(c3ccc[nH]3)C=CC1=C2)NCCCN1CCN(C2=Nc3ccccc3Oc3ccc(Cl)cc32)CC1 [Loxapine-a-2-NB590] | 1.05 | 0.89 | –
7 | CN1CCN(C2=Nc3cc(Cl)ccc3N(CC(=O)NCCOCCOCCOCCOCCNC(=O)CCc3ccc4n3[B-](F)(F)[N+]3=C(c5ccc[nH]5)C=CC3=C4)c3ccccc32)CC1 [Clozapine-c-2-NB590] | – | – | NanoBRET Fold Response (EDNRB, 0.1μM tracer): 1.00; NanoBRET Fold Response (EDNRB, 1μM tracer): 1.06
8 | CN(C)CCC=C1c2ccccc2CCc2ccc(C(=O)NCCNC(=O)CCOCCOCCOCCOCCNC(=O)CCc3ccc4n3[B-](F)(F)[N+]3=C(c5ccc[nH]5)C=CC3=C4)cc21 [Amitriptyline-a-2-NB590] | – | – | NanoBRET Fold Response (tracer at 0.1μM): 1.04; NanoBRET Fold Response (tracer at 1μM): 1.05
9 | Cc1nc2n(c(=O)c1CCN1CCC(c3noc4cc(F)ccc34)CC1)CCCC2OC(=O)NCCOCCOCCOCCOCCNC(=O)CCc1ccc2n1[B-](F)(F)[N+]1=C(c3ccc[nH]3)C=CC1=C2 (stereo not shown) [Risperidone-2-NB590] | 1.02 | 0.97 | –
10 | COc1ccc2[nH]c(-c3ccc(CNC(=O)CCOCCOCCOCCOCCNC(=O)CCc4ccc5n4[B-](F)(F)[N+]4=C(c6ccc[nH]6)C=CC4=C5)cc3)c(CCNC(C)=O)c2n1 [AzomelatoninICO9-2-NB590] | – | – | NanoBRET Fold Response (0.1μM tracer): 0.95; NanoBRET Fold Response (1μM tracer): 1.11
11 | COc1ccccc1N1CCN(CCCCN2C(=O)c3ccc(CNC(=O)CCOCCOCCOCCOCCNC(=O)CCc4ccc5n4[B-](F)(F)[N+]4=C(c6ccc[nH]6)C=CC4=C5)cc3C2=O)CC1 [NAN-190-2-NB590] | 1.05 | 0.99 | –
12 | O=C(CCc1ccc2n1[B-](F)(F)[N+]1=C(c3ccc[nH]3)C=CC1=C2)NCCOCCOCCNC(=O)OCCOCCN1CCN(C2=Nc3ccccc3Sc3ccccc32)CC1 [Quetiapine-a-2-NB590] | 0.97 | 0.99 | –
13 | O=C(CCOCCOCCOCCOCCNC(=O)CCc1ccc2n1[B-](F)(F)[N+]1=C(c3ccc[nH]3)C=CC1=C2)NCCCN1CCN(C2=Nc3cc(Cl)ccc3Nc3ccccc32)CC1 [Clozapine-a-2-NB590] | – | – | NanoBRET Fold Response (EDNRB, 0.1μM tracer): 1.01; NanoBRET Fold Response (EDNRB, 1μM tracer): 0.93
14 | N#CN=C(NCCCOc1cccc(CN2CCCCC2)c1)NCCNC(=O)CCOCCOCCOCCOCCNC(=O)CCc1ccc2n1[B-](F)(F)[N+]1=C(c3ccc[nH]3)C=CC1=C2 [Aminopotentidine-2-NB590] | 1.03 | 1.02 | –
15 | O=C(CCc1ccc2n1[B-](F)(F)[N+]1=C(c3ccc[nH]3)C=CC1=C2)NCc1ccc(C(=O)NCCOCCOCCNCC(O)COc2cccc3ccccc23)cc1 (stereo not shown) [Propranolol-3-NB590] | – | – | NanoBRET Fold Response (EDNRB, 0.1μM): 1.05; NanoBRET Fold Response (EDNRB, 1μM): 1.01
16 | O=C(CCc1ccc2n1[B-](F)(F)[N+]1=C(c3ccc[nH]3)C=CC1=C2)NCc1ccc(C(=O)NCCOCCC(=O)N[C@@H]2CC[C@@]3(O)[C@H]4Cc5ccc(O)c6c5[C@@]3(CCN4CC3CC3)[C@H]2O6)cc1 [Naltrexone-3-NB590] | 0.94 | 1.06 | –
17 | COc1ccccc1N1CCN(CCCCN2C(=O)c3ccc(CNC(=O)CCOCCNC(=O)c4ccc(CNC(=O)CCc5ccc6n5[B-](F)(F)[N+]5=C(c7ccc[nH]7)C=CC5=C6)cc4)cc3C2=O)CC1 [NAN-190-3-NB590] | 0.95 | 1.00 | –
18 | Cc1cc2c(s1)Nc1ccccc1N=C2N1CCN(CCCNC(=O)CCOCCOCCOCCOCCNC(=O)CCc2ccc3n2[B-](F)(F)[N+]2=C(c4ccc[nH]4)C=CC2=C3)CC1 [Olanzapine-a-2-NB590] | 1.00 | 0.89 | –
19 | CCCn1c(=O)c2[nH]c(-c3ccc(OCC(=O)NCCNC(=O)CCOCCNC(=O)c4ccc(CNC(=O)CCc5ccc6n5[B-](F)(F)[N+]5=C(c7ccc[nH]7)C=CC5=C6)cc4)cc3)nc2n(CCC)c1=O [XAC-3-NB590] | 0.92 | 1.18 | –
20 | CN(CCC=C1c2ccccc2CCc2ccccc21)C(=O)CCOCCOCCOCCOCCNC(=O)CCc1ccc2n1[B-](F)(F)[N+]1=C(c3ccc[nH]3)C=CC1=C2 [Amitriptyline-e-2-NB590] | – | – | NanoBRET Fold Response (tracer at 1μM): 1.01
21 | COc1ccc2c(n1)c(CCNC(C)=O)cn2CCNC(=O)CCc1ccc2n1[B-](F)(F)[N+]1=C(c3ccc[nH]3)C=CC1=C2 [Azamelatonin-1-NB590] | – | – | NanoBRET Fold Response (0.1μM tracer): 0.96; NanoBRET Fold Response (1μM tracer): 0.96
